Article PMC9322122, “Development of (4-Phenylamino)quinazoline Alkylthiourea Derivatives as Novel NF-κB Inhibitors” (Pharmaceuticals, 2022)
Where two headings read alike, the source gives them in different places.

Experiments:
NF-κB [1] = test system: NF-κB; set-up: method as in PMID 28291344; conditions: cell-based activity reporter assay; cited from earlier work
EGFR kinase = target: EGFR kinase; set-up: method as in PMID 28291344; conditions: cell-free kinase assay at 100 µM ATP; cited from earlier work
dTHP−1 cells = experiment: Cell viability of dTHP-1 cells with or without LPS; format: cell-based, human; conditions: in % (unit assumed); for Cell viability of dTHP-1 cells, 5 μM, LPS / Cell viability of dTHP-1 cells, 5 μM, without LPS: 5 μM (so in the source)
Experimental: (§1) The HEK-293 (ATCC Cat# CRL-1573, RRID:CVCL_0045) and human monocytic THP−1 cells (ATCC Cat# TIB-202, RRID:CVCL_0006) were, respectively, cultured in DMEM and RPMI 1640 media supplemented with 10% fetal bovine serum, 2 mM L-glutamine, and 1× Antibiotic-Antimycotic at 37 °C in a humidified incubator with 5% CO2. THP−1 cells were differentiated by 100 nM phorbol-12-myristate-13-acetate (PMA) for 4 h and then rested for 44 h as dTHP−1 cells.
(§2) Cells were incubated with the WST-1 reagent (Thermo Fisher Scientific, Waltham, MA, USA) at 37 °C for 2 h. The cell viability was determined by spectrophotometer at 450 nm.
(§3) The dTHP−1 cells were treated with indicated compounds for 3 h and then activated with or without 100 ng/mL lipopolysaccharide (LPS; E. coli 0111:B4) for another 24 h. The levels of human IL-6 and TNFα in supernatants were measured by DuoSet® ELISA Development System (R&D systems, Minneapolis, MN, USA) according to the manufacturer’s protocol.

IL-6 production = IL-6 production in LPS-activated dTHP-1 cells (ELISA); format: cell-based, human; conditions: for IC50 / inhibition at 7.5 µM / inhibition at 15 µM: Homo sapiens; for IC50: LPS-activated dTHP-1 cells, 24 h; for inhibition at 7.5 µM: read-out: IL-6 Production Inh % (7.5 μM); for inhibition at 15 µM: read-out: IL-6 Production Inh % (15 μM)
Experimental: as §1, §3

phospho-NF-κB p65 (S536) = experiment: Western blot phospho-NF-κB p65 (S536) in dTHP-1 cells; format: cell-based, human; conditions: CAPE 10 µM; LPS-stimulated dTHP-1 cells
Experimental: Cells were lysed in the commercial RIPA Buffer (Thermo Fisher Scientific, Waltham, MA, USA) and then centrifuged at 14,000× g for 20 min. […] Antibodies used in this study were phospho-NF-κB p65 (S468; catalog no. 3039), phospho-NF-κB p65 (S536; catalog no. 3033), phospho-IKKα/β (catalog no. 2697), and IκB (catalog no. 9242) from Cell Signaling Technology (Beverly, MA, USA); GAPDH from ABclonal (catalog no. A10868; Woburn, MA, USA). The labeled signals were determined using an enhanced chemiluminescence system (UVP, Upland, CA, USA). The experiments were performed at least two times in triplicate, providing basically the same results.
The dTHP−1 cells were incubated with DMSO (0.1%), 19 (7.5 µM), or CAPE (10 µM) in medium for 3 h and then stimulated with or without LPS (0.1 µg/mL) for another 30 min. (A) The levels of phospho-NF-κB p65 (S536), phospho-IKKα/β, IκB, and GAPDH were determined by Western blot. The normalized (B) phospho-NF-κB p65 (S536), (C) phospho-IKKα/β, and (D) IκB levels were quantified. All data are expressed as mean ± SEM (n = 3); * p < 0.05 compared with the DMSO + LPS group.

NF-κB [2] = experiment: NF-κB luciferase reporter assay; format: cell-based; conditions: Homo sapiens, NF-κB-luciferase-transfected HEK293 cells, TNFα 50 ng/mL; for inhibition at 10 µM: mean ± SEM, n = 3, read-out: NF-κB Luciferase Activity Inh %
Experimental: NF-κB Luciferase Reporter Vector was purchased from Signosis (Santa Clara, CA, USA) and transfected into HEK-293 cells using FuGENE HD (Promega, Fitchburg, MA, USA) following the manufacturer’s protocol. The transfected cells were incubated in serum-free DMEM for 16 h and then treated with DMSO or indicated compounds. After 3 h, cells were treated with or without 50 ng/mL of Recombinant Human TNFα Protein (R&D systems, Minneapolis, MN, USA) for another 3 h. The protein lysates were analyzed using Steady-Glo® Luciferase Assay System (Promega, Fitchburg, MA, USA) and TECAN Infinite 200 pro (Männedorf, Switzerland).

TNFα production = TNFα production in LPS-activated dTHP-1 cells (ELISA); format: cell-based; conditions: Homo sapiens; for IC50: LPS-activated dTHP-1 cells, 24 h; for inhibition at 7.5 µM / inhibition at 15 µM: LPS 100 ng/mL for 24 h, dTHP-1 cells; for inhibition at 7.5 µM: read-out: TNFα Production Inh % (7.5 μM); for inhibition at 15 µM: read-out: TNFα Production Inh % (15 μM)
Experimental: as §1, §3

Recombinant EGFR kinase = Recombinant EGFR kinase (Homo sapiens, UniProt P00533); experiment: Recombinant EGFR kinase activity; format: biochemical; conditions: read-out: Recombinant EGFR Kinase Activity (%inh at 150 nM)
[3] = Cell viability (WST-1), HEK293; format: cell-based; conditions: human, HEK293 cells, mean ± SEM, n = 3
Experimental: as §2

[4] = Cell viability (WST-1), A549; format: cell-based; conditions: human, A549 cells, mean ± SEM, n = 3
Experimental: as §2

[5] = 7.5 μM, LPS 100 ng/mL for 24 h, dTHP-1 cells
[6] = LPS 100 ng/mL for 24 h, dTHP-1 cells

Recombinant EGFR kinase, sequence (P00533 25-1210): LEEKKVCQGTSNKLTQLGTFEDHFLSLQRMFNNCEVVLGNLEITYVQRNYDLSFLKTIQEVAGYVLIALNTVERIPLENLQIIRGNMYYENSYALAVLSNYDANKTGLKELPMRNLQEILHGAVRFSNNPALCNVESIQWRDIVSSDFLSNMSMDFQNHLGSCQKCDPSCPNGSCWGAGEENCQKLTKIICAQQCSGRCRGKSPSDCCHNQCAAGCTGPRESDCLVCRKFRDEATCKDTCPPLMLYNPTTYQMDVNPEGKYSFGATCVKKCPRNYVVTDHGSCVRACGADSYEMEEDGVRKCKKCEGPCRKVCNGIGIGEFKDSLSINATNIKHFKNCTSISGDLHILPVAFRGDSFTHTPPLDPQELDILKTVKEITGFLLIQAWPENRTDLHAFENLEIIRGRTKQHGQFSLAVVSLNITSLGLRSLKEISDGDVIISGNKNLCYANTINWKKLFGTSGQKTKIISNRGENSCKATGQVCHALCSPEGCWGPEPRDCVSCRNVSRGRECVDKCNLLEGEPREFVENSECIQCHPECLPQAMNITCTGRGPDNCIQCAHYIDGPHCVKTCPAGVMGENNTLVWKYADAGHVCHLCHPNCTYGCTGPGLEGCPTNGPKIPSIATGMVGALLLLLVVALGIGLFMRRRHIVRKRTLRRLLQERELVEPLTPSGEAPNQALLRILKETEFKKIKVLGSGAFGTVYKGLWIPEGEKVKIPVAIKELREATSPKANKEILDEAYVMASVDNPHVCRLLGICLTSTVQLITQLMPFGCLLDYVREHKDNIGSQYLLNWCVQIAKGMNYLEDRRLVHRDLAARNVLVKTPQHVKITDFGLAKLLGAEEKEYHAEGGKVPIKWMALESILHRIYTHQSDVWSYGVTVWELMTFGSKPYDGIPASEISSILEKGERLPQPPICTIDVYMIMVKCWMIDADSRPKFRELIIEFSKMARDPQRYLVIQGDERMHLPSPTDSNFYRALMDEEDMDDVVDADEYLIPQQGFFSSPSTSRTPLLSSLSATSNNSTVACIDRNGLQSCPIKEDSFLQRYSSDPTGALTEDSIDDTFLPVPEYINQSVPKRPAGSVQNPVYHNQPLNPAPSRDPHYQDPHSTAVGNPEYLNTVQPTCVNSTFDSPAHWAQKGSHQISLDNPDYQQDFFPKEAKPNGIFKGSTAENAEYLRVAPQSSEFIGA

SMILES	IC50 (NF-κB [1]) [nM]	IC50 (IL-6 production) [nM]	inhibition at 10 µM (NF-κB [2]) [%]	IC50 (TNFα production) [nM]	Cell viability of dTHP-1 cells, 5 μM, LPS (dTHP−1 cells; LPS 100 ng/mL for 24 h)	Cell viability of dTHP-1 cells, 5 μM, without LPS (dTHP−1 cells; no LPS)	Cell viability of dTHP-1 cells, 7.5 μM, LPS (dTHP−1 cells; LPS 100 ng/mL for 24 h)	Cell viability of dTHP-1 cells, 7.5 μM, without LPS (dTHP−1 cells; no LPS)	inhibition at 7.5 µM (IL-6 production; [5]) [%]	inhibition at 15 µM (IL-6 production; [6]) [%]	inhibition at 0.15 µM (Recombinant EGFR kinase) [%]	viability at 10 µM [3] [%]	melting point [°C]	IC50 (NF-κB [2]) [nM]	inhibition at 7.5 µM (TNFα production) [%]	inhibition at 15 µM (TNFα production) [%]	viability at 10 µM [4] [%]	also measured
S=C(NCc1ccccc1)Nc1ccc2ncnc(Nc3ccc(Br)cc3)c2c1 [B]	3800																	IC50 (EGFR kinase): > 150 nM
O=C(/C=C/c1ccc(O)c(O)c1)OCCc1ccccc1 [CAPE, caffeic acid phenethyl ester, reference compound]		1100 ± 360	72.8	11400 ± 210														Cell viability of dTHP-1 cells, 10 μM, LPS (dTHP−1 cells; CAPE 10 μM, LPS 100 ng/mL for 24 h): 52.2 ± 9.7; Cell viability of dTHP-1 cells, 10 μM, without LPS (dTHP−1 cells; CAPE 10 μM, no LPS): 97.8 ± 0.41; Phosphorylation of p65 at Ser536 (phospho-NF-κB p65 (S536)): slight reduction in the p65 phosphorylation
COc1ccc(CNC(=S)Nc2ccc3ncnc(Nc4cccc(Cl)c4)c3c2)cc1 [Compound 2, 1-(4-((3-Chlorophenyl)amino)quinazolin-6-yl)-3-(4-methoxybenzyl)thiourea]		1200 ± 120	94.6 ± 0.1	10200 ± 270	78.8 ± 5.3	94.2 ± 1.6	57.5 ± 1.4	99.2 ± 1.5	76.2 ± 13.3	87.5 ± 6.8	67	101 ± 7.4	165 to 167	1700	32.5 ± 8.5	60.4 ± 1.8	95.4 ± 1.9	
S=C(NCC1CC1)Nc1ccc2ncnc(Nc3cccc(Cl)c3)c2c1 [Compound 18, 1-(4-((3-Chlorophenyl)amino)quinazolin-6-yl)-3-(cyclopropylmethyl)thiourea]		1100 ± 360	89.9 ± 1.5	11500 ± 1700	11.2 ± 3.3	87.6 ± 2.5	34.9 ± 1.6	82.7 ± 10.3	78.9 ± 14.8	89.4 ± 7	59	75.7 ± 3.8	226.3 to 228	2800	31 ± 4.5	65.9 ± 7.9	79.1 ± 0.6	
CC(C)(C)c1ccc(Nc2ncnc3ccc(NC(=S)NCc4ccccc4)cc23)cc1 [C]	5500																	IC50 (EGFR kinase): > 150 nM
S=C(NCc1ccccc1)Nc1ccc2ncnc(Nc3cccc(Cl)c3)c2c1 [A, reference compound]	3700		94.6 ± 1.5									72.4 ± 3.9		790			81.7 ± 1.2	
Fc1ccc(CNC(=S)Nc2ccc3ncnc(Nc4cccc(Cl)c4)c3c2)c(F)c1 [Compound 6, 1-(4-((3-chlorophenyl)amino)quinazolin-6-yl)-3-(2,4-difluorobenzyl)thiourea]		360 ± 70	78.4 ± 2.7	4400 ± 850	5.0 ± 0.35	43.6 ± 9.0		62.0 ± 14.5	97.6 ± 0.6	98.2 ± 1.3	68	85.5 ± 6.4	178 to 180	1600	61.1 ± 5.8	76.6 ± 3.8	75.5 ± 2.9	IL-6 Production Inh % (7.5 μM) (IL-6 production; [5]): almost complete blockage
S=C(Nc1ccc2ncnc(Nc3cccc(Cl)c3)c2c1)NC1CC1 [Compound 17, 1-(4-((3-Chlorophenyl)amino)quinazolin-6-yl)-3-cyclopropylthiourea]		720 ± 170	47 ± 5.3	12300 ± 1000	62.0 ± 3.4	84.5 ± 4.8		94.3 ± 1.9	86 ± 2.3	95.8 ± 0.33	36.5	103 ± 8.4	219.1 to 220.2	> 10000	19 ± 8	62 ± 4.2	102.6 ± 0.2	
CC(C)(C)NC(=S)Nc1ccc2ncnc(Nc3cccc(Cl)c3)c2c1 [Compound 20, 1-(tert-Butyl)-3-(4-((3-chlorophenyl)amino)quinazolin-6-yl)thiourea]		940 ± 110	75.7 ± 3.1	5100 ± 430	12.5 ± 0.23	42.5 ± 10.6	32.5 ± 0.89	78.0 ± 0.09	91.8 ± 3.5	98.7 ± 1.2	1.5	99.7 ± 8	177.5 to 179.4	2000	57.4 ± 7.2	89.9 ± 0.88	98.1 ± 3.1	
